Source: patent US11040035B2, “3-oxo-2,6-diphenyl-2,3-dihydropyridazine-4-carboxamides” (BAYER PHARMA AKTIENGESELLSCHAFT, priority 2016, dated 2021)

Tests used:
[1] = system: AHR-regulated gene CYP1A1; assay: In vitro assay 3: AHR-regulated CYP1A1 expression in human cell line (U937, qPCR); settings: Homo sapiens, U-937, 6 h, read-out: Assay 3: Hum CYP1A1 Antagonism IC50 [M], U937 cells, 200 μM KA, 6 hours, qPCR
AHR [2] = molecular target: T1, AHR (Homo sapiens, UniProt P35869); assay: In vitro assay 1: antagonism in human cell line (transactivation assay, kynurenic acid prestimulated); settings: Assay 1: AHR-luc Hum Antagonism IC50 [M], 150 μM kynurenic acid, 20 hours, firefly luciferase
T1 sequence (P35869 11-848): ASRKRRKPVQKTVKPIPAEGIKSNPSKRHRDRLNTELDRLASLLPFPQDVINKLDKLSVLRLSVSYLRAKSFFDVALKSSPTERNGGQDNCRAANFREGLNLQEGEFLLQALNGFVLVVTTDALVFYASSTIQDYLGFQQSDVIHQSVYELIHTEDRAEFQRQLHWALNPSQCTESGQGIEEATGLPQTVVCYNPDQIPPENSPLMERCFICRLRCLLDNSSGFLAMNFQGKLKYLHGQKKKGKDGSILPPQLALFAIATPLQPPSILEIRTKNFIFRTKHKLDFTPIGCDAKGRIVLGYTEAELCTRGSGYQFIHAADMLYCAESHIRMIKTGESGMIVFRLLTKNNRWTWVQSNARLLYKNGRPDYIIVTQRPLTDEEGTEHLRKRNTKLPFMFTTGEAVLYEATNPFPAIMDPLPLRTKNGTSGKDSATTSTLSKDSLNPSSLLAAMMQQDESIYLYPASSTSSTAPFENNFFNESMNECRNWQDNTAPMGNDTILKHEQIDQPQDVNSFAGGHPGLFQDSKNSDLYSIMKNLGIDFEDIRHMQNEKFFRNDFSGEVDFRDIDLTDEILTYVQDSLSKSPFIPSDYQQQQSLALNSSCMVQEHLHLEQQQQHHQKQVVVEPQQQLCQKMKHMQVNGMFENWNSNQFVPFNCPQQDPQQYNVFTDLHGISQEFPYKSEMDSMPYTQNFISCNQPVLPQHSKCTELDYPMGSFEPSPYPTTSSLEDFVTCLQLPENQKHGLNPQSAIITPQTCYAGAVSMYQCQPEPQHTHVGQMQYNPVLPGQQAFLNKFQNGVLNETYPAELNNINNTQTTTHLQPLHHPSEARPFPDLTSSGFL

AHR [3] = molecular target: T1, AHR; assay: In vitro assay 2: agonism in human cell line (transactivation assay); settings: Assay 2: AHR-luc Hum Agonism IC50 [M], no kynurenic acid, 20 hours, firefly luciferase

Cc1ccc(-c2cc(C(=O)NC(CO)C(C)C)c(=O)n(-c3cccc(F)c3)n2)cc1 (stereo not drawn) [Example 1, 2-(3-Fluorophenyl)-N-(1-hydroxy-3-methylbutan-2-yl)-6-(4-methylphenyl)-3-oxo-2,3-dihydropyridazine-4-carboxamide]
IC50 [1]: 3.1e-08 M
IC50 (AHR [2]): 2.98e-08 M

Cc1ccc(-c2cc(C(=O)N[C@@H](CO)C(C)C)c(=O)n(-c3cccc(F)c3)n2)cc1 [Example 3, 2-(3-Fluorophenyl)-N-[(2R)-1-hydroxy-3-methylbutan-2-yl]-6-(4-methylphenyl)-3-oxo-2,3-dihydropyridazine-4-carboxamide]
IC50 [1]: 1.31e-07 M
IC50 (AHR [2]): 3.03e-07 M

CC(NC(=O)c1cc(-c2ccc(Cl)cc2)nn(-c2cccc(F)c2)c1=O)C(O)CO (stereo not drawn) [Example 337, 6-(4-chlorophenyl)-N-(3,4-dihydroxybutan-2-yl)-2-(3-fluorophenyl)-3-oxo-2,3-dihydropyridazine-4-carboxamide]
IC50 (AHR [3]): > 2e-05 M
IC50 (AHR [2]): 4.58e-08 M

N#Cc1cccc(-n2nc(-c3ccc(Cl)cc3)cc(C(=O)NCC(O)C(F)(F)F)c2=O)c1 (stereo not drawn) [Example 362, 6-(4-chlorophenyl)-2-(3-cyanophenyl)-3-oxo-N-(3,3,3-trifluoro-2-hydroxypropyl)-2,3-dihydropyridazine-4-carboxamide]
IC50 (AHR [3]): > 2e-05 M
IC50 (AHR [2]): 2.31e-07 M

Cc1cccc(-n2nc(-c3ccc(Cl)cc3)cc(C(=O)NCC(O)C(F)(F)F)c2=O)c1 (stereo not drawn) [Example 366, 6-(4-chlorophenyl)-2-(3-methylphenyl)-3-oxo-N-(3,3,3-trifluoro-2-hydroxypropyl)-2,3-dihydropyridazine-4-carboxamide]
IC50 (AHR [3]): > 2e-05 M
IC50 (AHR [2]): 9.7e-07 M

C[C@@H](CO)NC(=O)c1cc(-c2ccc(Cl)cc2)nn(-c2cccc(C(F)F)c2)c1=O [Example 370, 6-(4-chlorophenyl)-2-[3-(difluoromethyl)phenyl]-N-[(2S)-1-hydroxypropan-2-yl]-3-oxo-2,3-dihydropyridazine-4-carboxamide]
IC50 (AHR [3]): > 2e-05 M
IC50 (AHR [2]): 9.24e-07 M

O=C(NC[C@H]1C[C@H](O)C1)c1cc(-c2ccc(Cl)cc2)nn(-c2cccc(F)c2)c1=O [Example 372, 6-(4-chlorophenyl)-2-(3-fluorophenyl)-N-[(trans-3-hydroxycyclobutyl)-methyl]-3-oxo-2,3-dihydropyridazine-4-carboxamide]
IC50 (AHR [3]): > 2e-05 M
IC50 (AHR [2]): 2.21e-07 M

CN(C)c1ccc(-c2cc(C(=O)N[C@H](CO)C(F)(F)F)c(=O)n(-c3cccc(F)c3)n2)cc1Cl [Example 373, 6-[3-chloro-4-(dimethylamino)phenyl]-2-(3-fluorophenyl)-3-oxo-N-[(2R)-1,1,1-trifluoro-3-hydroxypropan-2-yl]-2,3-dihydropyridazine-4-carboxamide]
IC50 (AHR [3]): > 2e-05 M
IC50 (AHR [2]): 1.69e-08 M

C[C@@H](CO)NC(=O)c1cc(-c2ccc(N(C)C)c(Cl)c2)nn(-c2cccc(F)c2)c1=O [Example 377, 6-[3-chloro-4-(dimethylamino)phenyl]-2-(3-fluorophenyl)-N-[(2S)-1-hydroxypropan-2-yl]-3-oxo-2,3-dihydropyridazine-4-carboxamide]
IC50 (AHR [3]): > 2e-05 M
IC50 (AHR [2]): 1.36e-07 M

C[C@@H](NC(=O)c1cc(-c2ccc(OC(F)(F)F)cc2)nn(-c2cccc(F)c2)c1=O)C(C)(C)O [Example 381, 2-(3-fluorophenyl)-N-[(2R)-3-hydroxy-3-methylbutan-2-yl]-3-oxo-6-[4-(trifluoromethoxy)phenyl]-2,3-dihydropyridazine-4-carboxamide]
IC50 (AHR [3]): > 2e-05 M
IC50 (AHR [2]): 4.7e-08 M

CC(C)(O)CNC(=O)c1cc(-c2ccc(OC(F)(F)F)cc2)nn(-c2cccc(F)c2)c1=O [Example 382, 2-(3-fluorophenyl)-N-(2-hydroxy-2-methylpropyl)-3-oxo-6-[4-(trifluoromethoxy)phenyl]-2,3-dihydropyridazine-4-carboxamide]
IC50 (AHR [3]): > 2e-05 M
IC50 (AHR [2]): 9e-08 M

C[C@H](NC(=O)c1cc(-c2ccc(OC(F)F)cc2)nn(-c2cccc(F)c2)c1=O)C(C)(C)O [Example 386, 6-[4-(difluoromethoxy)phenyl]-2-(3-fluorophenyl)-N-[(2S)-3-hydroxy-3-methylbutan-2-yl]-3-oxo-2,3-dihydropyridazine-4-carboxamide]
IC50 (AHR [3]): > 2e-05 M
IC50 (AHR [2]): 6.5e-08 M

CC(C)(C)OC(=O)N1C[C@H](O)[C@H](NC(=O)c2cc(-c3ccc(Cl)cc3)nn(-c3cccc(F)c3)c2=O)C1 [Example 387, tert-butyl (3R,4S)-3-({[6-(4-chlorophenyl)-2-(3-fluorophenyl)-3-oxo-2,3-dihydropyridazin-4-yl]carbonyl}amino)-4-hydroxypyrrolidine-1-carboxylate]
IC50 (AHR [3]): > 2e-05 M
IC50 (AHR [2]): 3.5e-07 M

O=C(NCC(O)C(F)(F)F)c1cc(-c2ccc(Cl)cc2)nn(-c2cccc(C(F)F)c2)c1=O (stereo not drawn) [Example 389, 6-(4-chlorophenyl)-2-[3-(difluoromethyl)phenyl]-3-oxo-N-(3,3,3-trifluoro-2-hydroxypropyl)-2,3-dihydropyridazine-4-carboxamide]
IC50 (AHR [3]): > 2e-05 M
IC50 (AHR [2]): 8.8e-07 M

CC(C)OC[C@H](NC(=O)c1cc(-c2ccc(Cl)cc2)nn(-c2cccc(F)c2)c1=O)C(C)(C)O [Example 390, 6-(4-chlorophenyl)-2-(3-fluorophenyl)-N-[(2S)-3-hydroxy-1-isopropoxy-3-methylbutan-2-yl]-3-oxo-2,3-dihydropyridazine-4-carboxamide]
IC50 (AHR [3]): > 2e-05 M
IC50 (AHR [2]): 9.4e-07 M

C[C@H](NC(=O)c1cc(-c2ccc(C(F)(F)F)cc2)nn(-c2cccc(F)c2)c1=O)C(C)(C)O [Example 391, 2-(3-fluorophenyl)-N-[(2S)-3-hydroxy-3-methylbutan-2-yl]-3-oxo-6-[4-(trifluoromethyl)phenyl]-2,3-dihydropyridazine-4-carboxamide]
IC50 (AHR [3]): > 2e-05 M
IC50 (AHR [2]): 1e-08 M

O=C(N[C@H]1C[C@H](CO)C1)c1cc(-c2ccc(Cl)cc2)nn(-c2cccc(F)c2)c1=O [Example 396, 6-(4-chlorophenyl)-2-(3-fluorophenyl)-N-[trans-3-(hydroxymethyl)cyclobutyl]-3-oxo-2,3-dihydropyridazine-4-carboxamide]
IC50 (AHR [3]): > 2e-05 M
IC50 (AHR [2]): 1.3e-07 M

O=C(NC[C@H](O)C(F)(F)F)c1cc(-c2ccc(CF)cc2)nn(-c2cccc(F)c2)c1=O [Example 397, 6-[4-(fluoromethyl)phenyl]-2-(3-fluorophenyl)-3-oxo-N-[(2S)-3,3,3-trifluoro-2-hydroxypropyl]-2,3-dihydropyridazine-4-carboxamide]
IC50 (AHR [3]): > 2e-05 M
IC50 (AHR [2]): 1.8e-07 M

COC(=O)C(C)(C)CNC(=O)c1cc(-c2ccc(Cl)cc2)nn(-c2cccc(F)c2)c1=O [Example 398, methyl 3-({[6-(4-chlorophenyl)-2-(3-fluorophenyl)-3-oxo-2,3-dihydropyridazin-4-yl]carbonyl}amino)-2,2-dimethylpropanoate]
IC50 (AHR [3]): > 2e-05 M
IC50 (AHR [2]): 4.2e-07 M

CC(C)(CNC(=O)c1cc(-c2ccc(Cl)cc2)nn(-c2cccc(F)c2)c1=O)C(=O)O [Example 399, 3-({[6-(4-Chlorophenyl)-2-(3-fluorophenyl)-3-oxo-2,3-dihydropyridazin-4-yl]carbonyl}amino)-2,2-dimethylpropanoic acid]
IC50 (AHR [3]): > 2e-05 M
IC50 (AHR [2]): 7.2e-07 M

C[C@@H](CO)NC(=O)c1cc(-c2ccc(Cl)cc2)nn(-c2cccc(C#N)c2)c1=O [Example 400, 6-(4-chlorophenyl)-2-(3-cyanophenyl)-N-[(2S)-1-hydroxypropan-2-yl]-3-oxo-2,3-dihydropyridazine-4-carboxamide]
IC50 (AHR [3]): > 2e-05 M
IC50 (AHR [2]): 8e-07 M

CC(C)[C@@H](CO)NC(=O)c1cc(-c2ccc(Cl)c(F)c2)nn(-c2cc(F)cc(F)c2)c1=O [Example 401, 6-(4-chloro-3-fluorophenyl)-2-(3,5-difluorophenyl)-N-[(2S)-1-hydroxy-3-methylbutan-2-yl]-3-oxo-2,3-dihydropyridazine-4-carboxamide]
IC50 (AHR [3]): > 2e-05 M
IC50 (AHR [2]): 1e-07 M

C[C@@H](CO)NC(=O)c1cc(-c2ccc(Cl)c(F)c2)nn(-c2cc(F)cc(F)c2)c1=O [Example 402, 6-(4-chloro-3-fluorophenyl)-2-(3,5-difluorophenyl)-N-[(2S)-1-hydroxypropan-2-yl]-3-oxo-2,3-dihydropyridazine-4-carboxamide]
IC50 (AHR [3]): > 2e-05 M
IC50 (AHR [2]): 3.7e-07 M

O=C(NCC(O)C(F)(F)F)c1cc(-c2ccc(Cl)c(F)c2)nn(-c2cc(F)cc(F)c2)c1=O (stereo not drawn) [Example 403, 6-(4-chloro-3-fluorophenyl)-2-(3,5-difluorophenyl)-3-oxo-N-(3,3,3-trifluoro-2-hydroxypropyl)-2,3-dihydropyridazine-4-carboxamide]
IC50 (AHR [3]): > 2e-05 M
IC50 (AHR [2]): 3.1e-07 M
